From patent US20150218212A1, “FLUORINATED EPOXYKETONE-BASED TETRAPEPTIDE COMPOUNDS AND USES THEREOF AS PROTEASOME INHIBITORS” (FLUORINOV PHARMA INC., priority 2012, published 2015) come the findings set out here.

In one experiment the test system is SR. In words: NCI screening panel, SR (Leukemia). It counts as cell-based, human. The procedure:
Representative compounds of Formula I were screened using the National Cancer Institute (NCI) screening panel, which consists of a panel of human tumor cell lines, representing leukemia, melanoma, and cancers of the lung, colon, ovary, breast, prostate and renal system.
After 24 h, two plates of each cell line are fixed in situ with TCA, to represent a measurement of the cell population for each cell line at the time of drug addition (Tz). Experimental drugs are solubilised in dimethyl sulfoxide at 400-fold the desired final maximum test concentration and stored frozen prior to use. At the time of drug addition, an aliquot of frozen concentrate is thawed and diluted to twice the desired final maximum test concentration with complete medium containing 50 μg/mL gentamicin. Additional four, 10-fold or ½ log serial dilutions are made to provide a total of five drug concentrations plus control. Aliquots of 100 μl of these different drug dilutions are added to the appropriate microtiter wells already containing 100 μl of medium, resulting in the required final drug concentrations.
Following drug addition, the plates are incubated for an additional 48 h at 37° C., 5% CO2, 95% air, and 100% relative humidity. For adherent cells, the assay is terminated by the addition of cold TCA (trichloroacetic acid). Cells are fixed in situ by the gentle addition of 50 μl of cold 50% (w/v) TCA (final concentration, 10% TCA) and incubated for 60 minutes at 4° C. The supernatant is discarded, and the plates are washed five times with tap water and air dried. Sulforhodamine B (SRB) solution (100 μl) at 0.4% (w/v) in 1% acetic acid is added to each well, and plates are incubated for 10 minutes at room temperature. After staining, unbound dye is removed by washing five times with 1% acetic acid and the plates are air dried. Bound stain is subsequently solubilised with 10 mM trizma base, and the absorbance is read on an automated plate reader at a wavelength of 515 nm. For suspension cells, the methodology is the same except that the assay is terminated by fixing settled cells at the bottom of the wells by gently adding 50 μl of 80% TCA (final concentration, 16% TCA). Using the seven absorbance measurements [time zero, (Tz), control growth, (C), and test growth in the presence of drug at the five concentration levels (Ti)], the percentage growth is calculated at each of the drug concentrations levels. Percentage growth inhibition is calculated as: [(Ti−Tz)/(C−Tz)]×100 for concentrations for which Ti>/=Tz and [(Ti−Tz)/Tz]×100 for concentrations for which Ti<Tz.
Three dose response parameters are calculated for each experimental agent. Growth inhibition of 50% (GI50) is calculated from [(Ti−Tz)/(C−Tz)]×100=50, which is the drug concentration resulting in a 50% reduction in the net protein increase (as measured by SRB staining) in control cells during the drug incubation. The drug concentration resulting in total growth inhibition (TGI) is calculated from Ti=Tz. The LC50 (concentration of drug resulting in a 50% reduction in the measured protein at the end of the drug treatment as compared to that at the beginning) indicating a net loss of cells following treatment is calculated from [(Ti−Tz)/Tz]×100=−50. Values are calculated for each of these three parameters if the level of activity is reached. However, if the effect is not reached or is exceeded, the value for that parameter is expressed as greater or less than the maximum or minimum concentration tested.

Experiment [1] concerns the target T1, proteasome Trypsin-like (T-L) activity (Mus musculus, UniProt P70195+Q9R1P1).
T1 construct: RBCs were lysed with assay lysis buffer and incubated on ice for 30 minutes; from tissue; host or cells: red blood cells of NOD/SCID mice
Briefly: Pharmacodynamic proteasome activity in murine red blood cells, T-L. It counts as in vivo, NOD/SCID mice. The conditions noted are these: iv, mice, 2 mg/kg i.v., time 0, read-out: Trypsin-like (T-L) mean residual activity relative to vehicle treated controls. The procedure: Cells were harvested by centrifugation at 1,200 rpm at room temperature. Cell pellets were washed with PBS (phosphate buffered saline) and lysed with assay lysis buffer (50 mM HEPES (N-2-hydroxyethylpiperazine-N′-2-ethanesulfonic acid), pH 7.5; 150 mM NaCl; 1% Triton X-100; 2 mM ATP). Cell lysates were incubated on ice for 30 minutes, mixed by vortex every 5 minutes, and then centrifuged at 12,000 g for 10 minutes. The supernatant was transferred to a 96-well plate. For each assay, 10 μg of total protein were incubated for 1 hour at 37° C. with increasing concentrations (1 nM to 10 μM) of test compound diluted in assay buffer (50 mM tris-HCl (tris(hydroxymethyl)aminomethane-HCl), pH 7.5; 150 mM NaCl). DMSO alone was used as a control in every assay plate. After incubation, a specific fluorogenic proteasome substrate was added to each assay reaction at a final concentration of 40 μM in a total volume of 100 μL. N-Succinyl-Leu-Leu-Val-Tyr-7-amino-4-methylcoumarin (Suc-Leu-Leu-Val-Tyr-AMC) was used for measuring chymotrypsin-like (CT-L) activity, t-butoxycarbonyl-Leu-Arg-Arg-7-amino-4-methylcoumarin (Boc-Leu-Arg-Arg-AMC) for trypsin-like (T-L) activity, and benzyloxycarbonyl-L-leucyl-L-leucyl-L-glutamyl-7-amino-4-methylcoumarin (Z-Leu-Leu-Glu-AMC) for caspase-like (C-L) activity. The excitation wavelength was set at 360 nm and the fluorescence emission wavelength of AMC was detected at 460 nm. The fluorescence of free AMC released during the enzymatic reaction was measured with a SpectraMax M5 fluorescent spectrophotometric plate reader (Molecular Devices, Sunnyvale, Calif.). AMC release rate was measured at 37° C. in a kinetic mode, recording every 5 minutes for 30 minutes. Experiments were performed in triplicate and repeated at least twice.
All mouse experiments were performed in accordance with approval from the Ontario Cancer Institute institutional animal review board. Five- to six-week-old male non-obese diabetic/severe combined immunodeficient (NOD/SCID) mice were grouped randomly (n=3 mice per group). Mice were administered vehicle (5% DMSO, 20% Cremophor) or compounds of Formula I at different doses either intravenously or by oral gavage, and venous blood samples (20-50 μL) were collected from each mouse over 24 hours. Blood samples were mixed with heparin (APP Pharmaceuticals; Schaumburg, Ill.) in 0.5 mL tubes in accordance with the manufacturer's instructions. After centrifugal separation at 3,000 g for 10 minutes, red blood cells (RBCs) in the bottom layer were transferred into a new tube and stored at −70° C. until use. RBCs were lysed with assay lysis buffer and incubated on ice for 30 minutes, mixing by vortex every 5 minutes, and then centrifuged at 12,000 g for 10 minutes. The supernatant was transferred to a 96-well plate and proteasome activity was measured as described above for tumor cell lysates.
Proteasome subunit activity (Chymotrypsin-like, Trypsin-like, Caspase-like, CT-L, T-L, C-L, respectively) were monitored over the course of 24 hrs following […] administration of representative compounds of Formula I. NOD/SCID mice were treated with compounds of Formula I (2 mg/kg by iv administration) or vehicle control and carfilzomib for up to 24 hours, as described above. Table 9 summarizes the data on pharmacodynamic activity of representative compounds of Formula I following a dose of 2 mg/kg intravenous (i.v) administration to mice. Data are presented as mean residual activity (SEM) relative to vehicle treated controls.

Consider `CC(C)C[C@H](NC(=O)[C@H](COC(F)F)NC(=O)CN1CCOCC1)C(=O)N[C@@H](COC(F)F)C(=O)N[C@@H](CC(C)C)C(=O)[C@@]1(C)CO1` [Example 1, (2S)—N-[(1S)-1-(difluoromethoxymethyl)-2-[[(1S)-3-methyl-1-[(2R)-2-methyloxirane-2-carbonyl]butyl]amino]-2-oxo-ethyl]-2-[[(2S)-3-(difluoromethoxy)-2-[(2-morpholinoacetyl)amino]propanoyl]amino]-4-methyl-pentanamide], for which, in the experiment on SR, the Log10GI50 is −7.52, the Log10LC50 is above −4.00 and the Log10TGI50 is reported as −4.61. In addition, the remaining activity at 2 mg/kg in experiment [1] amounted to 100%.
The corresponding values for `CC(C)C[C@H](NC(=O)[C@H](COC(F)F)NC(=O)CN1CCOCC1)C(=O)N[C@@H](Cc1ccccc1)C(=O)N[C@@H](CC(C)C)C(=O)[C@@]1(C)CO1` [Example 2, (2S)-N-[(1S)-1-benzyl-2-[[(1S)-3-methyl-1-[(2R)-2-methyloxirane-2-carbonyl]butyl]-amino]-2-oxo-ethyl]-2-[[(2S)-3-(difluoromethoxy)-2-[(2-morpholinoacetyl)amino]propanoyl]amino]-4-methyl-pentanamide] are below −8.00, above −4.00, above −4.00 and 100%.
The corresponding values for `CC(C)C[C@H](NC(=O)[C@H](COC(F)F)NC(=O)CN1CCOCC1)C(=O)N[C@@H](Cc1ccccc1)C(=O)N[C@@H](Cc1ccccc1)C(=O)[C@@]1(C)CO1` [Example 3, (2S)-N-[(1S)-1-benzyl-2-[[(1S)-1-benzyl-2-[(2R)-2-methyloxiran-2-yl]-2-oxo-ethyl]amino]-2-oxo-ethyl]-2-[[(2S)-3-(difluoromethoxy)-2-[(2-morpholinoacetyl)-amino]propanoyl]amino]-4-methyl-pentan-amide] are below −8.00, above −4.00, above −4.00 and 100%.
In the experiment with SR, `CC(C)C[C@H](NC(=O)[C@H](COC(F)F)NC(=O)CN1CCOCC1)C(=O)N[C@@H](COC(F)F)C(=O)N[C@@H](Cc1ccccc1)C(=O)[C@@]1(C)CO1` [Example 4, (2S)-N-[(1S)-2-[[(1S)-1-benzyl-2-[(2R)-2-methyloxiran-2-yl]-2-oxo-ethyl]amino]-1-(difluoromethoxymethyl)-2-oxo-ethyl]-2-[[(2S)-3-(difluoromethoxy)-2-[(2-mor-pholinoacetyl)amino]propanoyl]amino]-4 methyl-pentanamide] showed a Log10GI50 of −7.66, a Log10LC50 above −4.00 and a Log10TGI50 above −4.00. Further, the remaining activity at 2 mg/kg in experiment [1] was found to be 100%.
On to `CC(C)C[C@H](NC(=O)[C@H](COC(F)F)NC(=O)[C@H](COC(F)F)NC(=O)[C@H](CCc1ccccc1)NC(=O)CN1CCOCC1)C(=O)[C@@]1(C)CO1` [Example 7, (2S)-N-[(1S)-1-(difluoromethoxymethyl)-2-[[(1S)-1-(difluoromethoxymethyl)-2-[[(1S)-3-methyl-1-[(2R)-2-methyloxirane-2-carbo-nyl]butyl]amino]-2-oxo-ethyl]amino]-2-oxo-ethyl]-2-[(2-morpholinoacetyl)amino]-4-phenyl-butanamide], for which, in the experiment on SR, the Log10GI50 is listed as −7.64, the Log10LC50 is recorded as above −4.00 and the Log10TGI50 is on record as above −4.00. For the same molecule, the remaining activity at 2 mg/kg in experiment [1] came to 100%.
In the experiment on SR, `CC(C)C[C@H](NC(=O)[C@H](Cc1ccccc1)NC(=O)[C@H](COC(F)F)NC(=O)[C@H](COC(F)F)NC(=O)CN1CCOCC1)C(=O)[C@@]1(C)CO1` [Example 11, (2S)-2-[[(2S)-3-(difluoromethoxy)-2-[[(2S)-3-(difluoromethoxy)-2-[(2-morpholinoacetyl)-amino]propanoyl]amino]propanoyl]amino]-N-[(1S)-3-methyl-1-[(2R)-2-methyloxirane-2-carbonyl]butyl]-3-phenyl-propanamide] yielded a Log10GI50 of −7.82, a Log10LC50 above −4.00 and a Log10TGI50 above −4.00. Also, in experiment [1], the remaining activity at 2 mg/kg came out at 100%.
In the experiment with SR, `CC(C)C[C@H](NC(=O)[C@H](COC(F)F)NC(=O)[C@H](COC(F)F)NC(=O)[C@H](COC(F)F)NC(=O)CN1CCOCC1)C(=O)[C@@]1(C)CO1` [Example 17, (2S)-3-(difluoromethoxy)-N-[(1S)-1-(difluoromethoxymethyl)-2-[[(1S)-1-(difluoro-methoxymethyl)-2-[[(1S)-3-methyl-1-[(2R)-2-methyloxirane-2-carbonyl]butyl]amino]-2-oxo-ethyl]amino]-2-oxo-ethyl]-2-[(2-mor-pholinoacetyl)amino]-propanamide] returned a Log10GI50 of −7.27 and a Log10TGI50 above −4.00. Also, the remaining activity at 2 mg/kg in experiment [1] was 100%.
